Source: PubChem BioAssay (NCI)
Values joined by “and” are separate entries in the source; they are usually repeats but may differ in a detail not shown here. Identical values can stand only once.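 Briefly, cells in 96-well plates were exposed to five compound concentrations for 48 h, and endpoints were estimated by linear interpolation. The concentration for 50% growth inhibition is given as GI50. TGI: concentration producing complete growth inhibition.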 Where a SMILES comes first, the peptide text is derived from it. [ ]: non-standard residue; d: D form. Orn = NCCC[CH](N)C(=O)O

What was measured:
Test in all cases: NCI anticancer screen, dose series, 48 h
[1] = system: BT-549 breast
[2] = system: CCRF-CEM leukemia
[3] = system: COLO 205 colon
[4] = system: HCT-15 colon
[5] = system: HT29 colon
[6] = system: K-562 leukemia
[7] = system: MALME-3M melanoma
[8] = system: NCI-H522 lung
[9] = system: SN12C renal
[10] = system: TK-10 renal

SMILES	GI50 [1]	TGI [1]	GI50 [2] [nM]	TGI [2] [µM]	GI50 [3] [nM]	TGI [3] [µM]	GI50 [4]	TGI [4]	GI50 [5]	TGI [5]	GI50 [6] [nM]	TGI [6] [µM]	GI50 [7]	TGI [7]	GI50 [8] [nM]	TGI [8]	GI50 [9]	TGI [9]	GI50 [10]	TGI [10]
O=C(O)c1cn(C2CC2)c2cc(N3CCN(C(=O)Nc4nc(-c5ccc(Cl)cc5)cs4)CC3)c(F)cc2c1=O	934 nM	25.5 µM	1220	> 100	3320	> 100	1710 nM	> 100 µM	2990 nM	> 100 µM	2240	> 100	1470 nM	5.83 µM	2550	9.14 µM	3530 nM	> 100 µM	4110 nM	> 100 µM
COc1ccc2c(c1)N(CCC1CCCCN1C)c1ccccc1S2 (configuration not stated)		30.4 µM		28.9		30.9		27.4 µM		18.9 µM		18.2		33.7 µM		28 µM		29.4 µM		28.1 µM
COc1cccc(-c2cc(NCc3ccc4c(c3)OCO4)nc(N)n2)c1	149 nM	5.15 µM	76.2	> 100	46.6	0.198	53.3 nM	13.9 µM	42.3 nM	6.84 µM	41	> 34	112 nM	26.3 µM	60.7	1.27 µM	103 nM	22 µM	8960 nM	29 µM
Cc1cc(Cl)ccc1Nc1nc(C(F)(F)F)ccc1C(=O)N/N=C/c1c(Cl)cccc1Cl	194 nM	0.675 µM	107	> 100	358	1.24	145 nM	> 100 µM	443 nM	> 100 µM	253		494 nM	2.5 µM	306		262 nM	> 100 µM	316 nM	1.79 µM
Cc1cc(Cl)ccc1Nc1nc(C(F)(F)F)ccc1C(=O)N/N=C/c1ccc(F)cc1	1060 nM	3.51 µM	528	5.9	1610	3.64	621 nM	12.4 µM	2830 nM	10.3 µM	1890	6.05	1110 nM	4.7 µM	2400	8.12 µM	2560 nM	11.4 µM	1700 nM	7.6 µM
O=C(Nc1ncc(Cc2ccc(Cl)cc2)s1)c1ccc2c(c1)OCCO2	207 nM	> 83.4 µM	63.9	> 100	49.2	1.19	47.7 nM	> 100 µM	171 nM	> 43.4 µM	45.3	> 100	59 nM	> 86.5 µM	33.1		155 nM	> 100 µM	245 nM	> 32.5 µM
CC(C)CC1NC(=O)C(CCCN)NC(=O)C(C(C)C)NC(=O)C2CCCN2C(=O)C(Cc2ccccc2)NC(=O)C(CC(C)C)NC(=O)C(CCCN)NC(=O)C(C(C)C)NC(=O)C2CCCN2C(=O)C(Cc2ccccc2)NC1=O (configuration not stated) (cyclo(FPV[Orn]LFPV[Orn]L); configuration not given here)	32.6 nM and 45.9 nM	0.261 µM and 0.271 µM	8.14	0.32	< 3.25	0.00419	213 nM and 436 nM	4.06 µM and 4.7 µM	13.3 nM and 36.3 nM	0.266 µM and 1.22 µM	< 3.25	0.0565	10.8 nM and 28.6 nM	0.12 µM and 0.0929 µM	7.67	0.0376 µM and 0.0958 µM	11.1 nM and 28.8 nM	0.419 µM and 1.13 µM	21.3 nM and 104 nM	1.51 µM and 5.71 µM
COc1ccc2c(c1)CC[C@@H]1[C@@H]2CC[C@]2(C)c3c(cc(C(=O)c4ccccc4)c4sccc34)C[C@@H]12	> 100000 nM	> 100 µM	> 100000	> 100	> 100000	> 100	> 100000 nM	> 100 µM	> 100000 nM	> 100 µM	> 100000	> 100	> 100000 nM	> 100 µM	> 100000	> 100 µM	> 100000 nM	> 100 µM	> 100000 nM	> 100 µM
O=C(Nc1cccc(-n2cc(-c3ccncc3)c(-c3ccc(O)c(Cl)c3)n2)c1)Nc1ccc(Cl)c(C(F)(F)F)c1	1820 nM	4.28 µM	1770	6.31	1770	3.32	2580 nM	10.9 µM	3390 nM	11.3 µM	2440	9.79	2430 nM	7.59 µM	1640	4.16 µM	2990 nM	13.4 µM	2960 nM	7.16 µM
Cc1ccc(C2CC(c3cccc(Nc4ccncc4)c3)=NN2c2ccc(Cl)cc2)cc1 (configuration not stated)	1810 nM	3.4 µM	2640	7.66	1730	3.6	1830 nM	3.43 µM	1860 nM	3.9 µM	1840	4.46	1600 nM	3.05 µM	1780	3.67 µM	1660 nM	3.13 µM	1780 nM	3.35 µM
CCCNNC(=O)c1ccc(CNC(=O)/C=C/c2ccccc2)cc1	1430 nM	> 100 µM	115	> 100	90.9	0.292	305 nM	> 39 µM	120 nM	> 100 µM	73.2	> 100	47.5 nM	> 100 µM	226	> 100 µM	313 nM	> 100 µM	34.3 nM	0.577 µM
CCNCCNc1cc(C2CCCC2)c(C#N)c2nc3ccccc3n12	2450 nM	5.84 µM	2460	7.75	2000	4.71	3070 nM	12.9 µM	2370 nM	5.98 µM	2490	5.81	1730 nM	3.45 µM	2260	5.33 µM	3610 nM	12.9 µM	1840 nM	5.14 µM
Cc1ccc(S(=O)(=O)C2=C3C(=C(c4ccccc4)c4ccccc43)CN(S(=O)(=O)c3ccc(C)cc3)C2)cc1	1930 nM	4.65 µM	446	> 100	14900	> 100	2320 nM	16.3 µM	3320 nM	69.4 µM	2080	> 100	9710 nM	29.2 µM	2410	6.35 µM	3040 nM	20.1 µM	14200 nM	30.1 µM
N=C(N)c1ccc(-c2ccc(-c3ccco3)o2)cc1F	2190 nM	5.11 µM	2770	8.16	1800	3.62	2020 nM	4.81 µM	1290 nM	3.3 µM	1580	3.82	1740 nM	3.38 µM	2310	6 µM	2010 nM	6.53 µM	1690 nM	3.24 µM
COC1(C)Cc2c(c(C)c(O)c3c2C(=O)C=C(Cl)C3=O)O1 (configuration not stated)		> 100 µM		26.3		38.1		> 71.9 µM		67 µM		36.8		19.7 µM		33 µM		> 96.7 µM		45.6 µM
O=C(/C=C/c1ccc2c(c1)OCO2)c1ccccc(=O)c1O		47.6 µM		3.93		20.2		> 100 µM		26.3 µM		> 100		60 µM		63.4 µM		> 100 µM		43.5 µM
